Measurements: patent US20140196172A1, “Organelle Targeting Nanocarriers” (Her Majesty the Queen in Right of Canada, as Repre sented …, priority 2011, published 2014)

Legend:
[1] = tested on: chloroplasts of triticale protoplasts; test: qRT-PCR of gfp mRNA, protoplasts transfected with pWCaadA16GFP; assay type: cell-based; settings: gfp reporter construct
Text: (§1) FIG. 20 is a plot showing the level of expression (fold increase, average of 4 replicates) of GFP in triticale protoplasts transfected with the pWCaadA16GFP plasmid in the presence of cTP1 (SEQ ID NO: 6), cTP2 (SEQ ID NO: 7), cTP3 (SEQ ID NO: 8), cTP4 (SEQ ID NO: 9) or cTP5 (SEQ ID NO: 10) compared to the level of expression (fold increase) of the internal control elongation factor 1a (EF1a), as measured by quantitative real time PCR of mRNA levels.
(§2) Wheat chloroplast aadA16GFP reporter plasmid (pWCaadA16GFP, FIG. 12) is a 4212 base pair wheat specific plastid transformation vector, which targets insertions into the tml-tmA inverted repeat regions of the Triticum aestivum plastid genome at nucleotides 92850-93727 and 93794-94671 (GenBank accession No. AB042240.3). A multiple cloning site is introduced following the tml target insertion sequence. The selection marker gene is an organelle codon specific aad-gfp fusion gene, which facilitates a dual selection method of spectinomycin resistance through an aadA derivative and visual detection by GFP fluorescence (GenBank accession No. ABX39486; Khan and Maliga, Nat. Biotechnol. (1999 September) 17(9): 910-5). The selection marker gene is driven by the Triticum aestivum plastid genome promoter (psbA) at nucleotides 1282-1153 (GenBank accession No. AB042240.3). The aad-gfp fusion gene is terminated with the rice psbA terminator sequence derived from chloroplast transformation vector pVSR326 nucleotides 4014-4387 (GenBank accession No. AF527485.1).
The dsDNA construct (pWMaadA16GFP for mitochondrial expression or pWCaadA16GFP for expression in chloroplasts) is combined with the mTP (for mitochondrial expression) or cTP (for expression in chloroplasts) in a final volume of 100 μl of CPW solution. For experiments using mTP1 (SEQ ID NO: 1), mTP2 (SEQ ID NO: 2), mTP3 (SEQ ID NO: 3), or mTP5 (SEQ ID NO: 5), peptides (scaled up from 100 ng, at four times the concentration needed to cause a DNA shift in the gel mobility shift assay (Table 7)) are combined with the pWMaadA16GFP construct (5 μg). For experiments using the remaining oTPs, peptides (30 μg) are combined with the appropriate dsDNA construct (1.5 μg). The mixture is incubated for 10 minutes at room temperature, then incubated with isolated triticale mesophyll protoplasts (500 μl, 10^6 protoplasts/ml, prepared as described in Example 2) for 1 h in the dark at room temperature. CPW solution (500 μl) is added and the mixture is incubated in the dark for 24 h. The cells are imaged using confocal microscopy, as described in Example 2, using MitoTracker® Orange staining to visualize mitochondria and chlorophyll autofluorescence to visualize chloroplasts.
(§3) cDNA is generated using a First Strand Synthesis kit (Invitrogen). RNA (1 μg) is added to each sample and the manufacturer's protocol for synthesis followed, with the exception that the volume of the reaction mixture is increased from 20 μl to 30 μl. A negRT sample containing all reagents but no RNA is included in the cDNA synthesis as a negative control.
Standard curves are generated for both elongation factor 1a (EF1a) (internal control) and green fluorescent protein (GFP) (test) genes. The EF1a curve is generated by pooling 6 μl of each cDNA sample (excluding the negRT control), then carrying out a serial dilution of 0.5 for 5 more dilutions. […]
(§4) Real time PCR reactions are performed using QuantiTect™ SYBR™ Green PCR Master Mix (Qiagen) in a 20 μl reaction volume. […]

[2] = tested on: proplastids of triticale microspores; test: qRT-PCR of gfp mRNA, microspores transfected with pWCaadA16GFP; assay type: cell-based; settings: gfp reporter construct
Text: as §1, with “18” for “20”, “microspores” for “protoplasts”, “levels;” for “levels.”
as §2
The dsDNA construct (pWMaadA16GFP for mitochondrial expression or pWCaadA16GFP for expression in chloroplasts) is combined with the mTP (for mitochondrial expression) or cTP (for expression in chloroplasts) in the amounts used in the protoplast transformation experiments described above in a final volume of 100 μl of NBP-99 solution. The mixture is incubated for 10 minutes at room temperature, then incubated with isolated triticale microspores (500 μl, 10^6 microspores/ml, prepared as described in Example 2) for 1 h in the dark at room temperature. NBP-99 solution (500 μl) is added and the mixture is incubated in the dark for 24 h. The cells are imaged using confocal microscopy, as described in Example 2, using MitoTracker® Orange staining to visualize mitochondria.
Microspores are disrupted using a cleaned ceramic bead and aggressive shaking as the tissue is thawing. RLT buffer/B-Me (450 μl) is added and the sample is vortexed. The sample is heated at 55° C. for 1 minute and vortexed again. RNA is extracted using an RNeasy™ Plant Mini Kit (Qiagen), incorporating on-column DNase I digestion into the protocol. The final elution volume is 40 μl. RNA is assessed using both agarose gel […] (to ensure RNA is intact) and spectrophotometry (for quantification).
as §3
Standard curves are generated for both elongation factor 1a (EF1a) (internal control) and green fluorescent protein (GFP) (test) genes. […]
as §4

## MKNPPSSFASGFGIR (listed as Oryza sativa) [cTP3]
[1]
  GFP expression by chloroplasts confirmed by qRT-PCR: GFP is expressed
[2]
  GFP expression by proplastids confirmed by qRT-PCR: GFP is expressed
